Measured values from US20100247517A1, “USE OF MNK INHIBITORS FOR THE TREATMENT OF ALZHEIMER'S DISEASE” (Boehringer Ingelheim Internationational GmbH, priority 2007, published 2010).

How the values were obtained:
Human Mnk2-GST = target: T1, Human Mnk2-GST (Homo sapiens, UniProt Q9HBH9); test: In vitro phosphorylation of human Tau by Mnk2 (kinase reaction, immunoblotting); type: biochemical
T1 construct: GST; made in house; host or cells: E. coli
Procedure: (§1) Kinase reaction: The kinase reactions were carried out in a total volume of 30 μl in reaction buffer (20 mM HEPES/KOH pH 7.4, 10 mM MgCl2, 2 mM DTT, 0.1% Pluronic F127, 0.01% BSA) containing 500 μM ATP, 0.5 μM human recombinant Tau (USBiological, T1040-10), inhibitors and kinases as indicated in figures. Human Mnk1-GST and Mnk2-GST was expressed in E. coli and purifies by Äkta Explorer 100 (Amersham) and pre-activated by human recombinant Erk2 (DeveloGen). Aliquots were stored at −80° C. up to use. Recombinant human PKA (Calbiochem, 539482) was used as positive control. All components of reactions were pre-diluted in reaction buffer. […] Samples were analysed by Immunoblotting.
(§2) Immunoblotting: Laemmli sample buffer (Biorad) was added to the stopped kinase reactions, subjected to SDS-PAGE and electroblotted on a nitrocellulose membrane (Schleicher & Schüll). The transferred membrane was incubated with NET-G buffer (50 mM Tris/HCl pH 7.5, 5 mM EDTA, 150 mM NaCl, 0.05% Triton X-100, 0.25% (w/v) gelatine) containing 1/1000 (v/v) anti Tau (phospho S262) or anti Tau (phospho S356) antibodies (Abcam, ab4856 and ab4857) over night at 4° C. After washing with NET-G buffer the membrane was treated with NET-G buffer containing 1/5000 (v/v) HRP-conjugated anti rabbit IgG antibody (Pierce) for 2 hours at room temperature.
(§3) For loading control membrane was stripped with stripping buffer (200 mM glycine/HCl pH 2.2, 0.1% SDS, 0.1% Tween 20) for 3 hours at room temperature. The membrane was then treated with NET-G buffer containing 1/4000 (v/v) anti Tau antibody (Abcam, ab19326). After washing with NET-G buffer the membrane was incubated with NET-G buffer containing 1/5000 (v/v) HRP-conjugated anti goat IgG antibody (DakoCytomation). Signals were detected with chemiluminescence using ECL Super Signal West Dura kit (Pierce).

Human Mnk1-GST = target: T2, Human Mnk1-GST (Homo sapiens, UniProt Q9BUB5); test: In vitro phosphorylation of human Tau by Mnk1 (kinase reaction, immunoblotting); type: biochemical
T2 construct: GST; made in house; host or cells: E. coli
Procedure: as §1, §2, §3

[1] = results summary of FIG. 2 / FIG. 3

T1 sequence (Q9HBH9 whole entry): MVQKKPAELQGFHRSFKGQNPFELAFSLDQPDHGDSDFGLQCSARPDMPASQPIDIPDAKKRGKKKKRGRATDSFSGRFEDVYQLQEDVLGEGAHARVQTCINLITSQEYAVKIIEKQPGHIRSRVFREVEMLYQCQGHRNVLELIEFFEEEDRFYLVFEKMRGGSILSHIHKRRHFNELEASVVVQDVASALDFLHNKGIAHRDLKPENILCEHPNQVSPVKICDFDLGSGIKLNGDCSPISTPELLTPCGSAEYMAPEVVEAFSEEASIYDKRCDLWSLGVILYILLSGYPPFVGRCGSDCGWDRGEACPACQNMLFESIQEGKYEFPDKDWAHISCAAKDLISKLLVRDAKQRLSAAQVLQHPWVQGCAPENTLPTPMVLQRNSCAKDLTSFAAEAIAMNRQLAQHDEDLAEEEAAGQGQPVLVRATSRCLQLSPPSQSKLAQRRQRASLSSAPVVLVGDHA
T2 sequence (Q9BUB5 whole entry): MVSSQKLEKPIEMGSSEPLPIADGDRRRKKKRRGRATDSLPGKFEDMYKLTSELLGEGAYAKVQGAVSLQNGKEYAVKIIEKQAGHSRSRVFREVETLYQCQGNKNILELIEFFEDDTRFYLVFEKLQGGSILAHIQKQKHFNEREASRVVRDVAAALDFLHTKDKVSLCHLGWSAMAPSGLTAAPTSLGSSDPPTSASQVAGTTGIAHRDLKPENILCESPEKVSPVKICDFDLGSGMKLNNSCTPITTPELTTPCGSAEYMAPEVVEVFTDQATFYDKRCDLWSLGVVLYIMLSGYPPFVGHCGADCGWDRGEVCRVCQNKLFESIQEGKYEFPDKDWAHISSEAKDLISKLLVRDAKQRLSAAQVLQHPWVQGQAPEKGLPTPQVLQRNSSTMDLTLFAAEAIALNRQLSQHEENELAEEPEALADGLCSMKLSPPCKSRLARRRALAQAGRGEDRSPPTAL

inhibition of in vitro phosphorylation of Ser262 in human Tau by Mnk2 (Human Mnk2-GST; 0.5 μM human Tau, 500 μM ATP, 120 min at 37° C., Western blot, FIG. 2A / 3A): in a dose dependent manner | inhibition of in vitro phosphorylation of Ser356 in human Tau by Mnk2 (Human Mnk2-GST; 0.5 μM human Tau, 500 μM ATP, 120 min at 37° C., Western blot, FIG. 2B / 3B): in a dose dependent manner | inhibition of Mnk2-dependent tau phosphorylation (Human Mnk2-GST; [1]): dose-dependent inhibition | inhibition of in vitro phosphorylation of Ser262 in human Tau by Mnk1 (Human Mnk1-GST; 0.5 μM human Tau, 500 μM ATP, 120 min at 37° C., Erk2 (5 nM) used to activate Mnk, Western blot, FIG. 2A): in a dose dependent manner | inhibition of in vitro phosphorylation of Ser356 in human Tau by Mnk1 (Human Mnk1-GST; 0.5 μM human Tau, 500 μM ATP, 120 min at 37° C., Erk2 (5 nM) used to activate Mnk, Western blot, FIG. 2B): in a dose dependent manner | inhibition of Mnk1-dependent tau phosphorylation (Human Mnk1-GST; [1]): dose-dependent inhibition
SMILES: CCOc1cc(C(N)=O)ccc1Nc1ncnc2scc(C)c12 [EDJ101401, 3-ethoxy-4-(5-methyl-thieno[2,3-D]pyrimidine-4-ylamino)-benzamide]
